Reference: US8765786B2, “1-substituted indazole derivative” (Dainippon Sumitomo Pharma Co., Ltd., priority 2012, dated 2014)

Biological target: T1, human α7 nAChR (Homo sapiens, UniProt P36544)
T1 construct: expressed in transfected cells; host or cells: GH4C1 cells derived from rat pituitary (ATCC CCL-82.2)
Assay: Evaluation of PAM activity with human α7 nACh receptor stably expressing cells (aequorin luminescence, FDSS7000)
Assay type: cell-based
Conditions: for α7PAM (%) @ 10 μmol/L / activity at 10 µM: test compound 10 μmol/L, ACh added at EC20, ratio of RLU (Max-Min) of test wells to control wells; for activity at 10 µM: read-out: α7PAM (%) @ 10 μmol/L
Excerpt: Human α7 nAChR stably expressing cells were generated and cultured. In detail, GH4C1 cells derived from rat pituitary (cat#CCL-82.2, ATCC, USA) were used as a host cell. PcDNA3.1Zeo vector containing a nucleotide sequence encoding a protein GenBank BAC81731 and pcDNA3.1 vector containing human α7 nAChR gene (cat#V790-20, invitrogen, Carlsbad, Calif., USA) were transfected to the cells to give aequorins and human α7 nAChR stably expressing cells respectively. The aequorins and human α7 nAChR stably expressing cells were screened with Zeocin (cat#R25001, invitrogen, Carlsbad, Calif., USA) and Geneticin (cat #10131-027, invitrogen, Carlsbad, Calif., USA) respectively.
The cells were cultured in F-10 Nutrient Mixture (Ham) medium (cat #11550-043, invitrogen, Carlsbad, Calif., USA) containing 2.5% fetal bovine serum (cat #2917354, ICN Biomedicals, Inc, USA), 15% inactivated horse serum (cat #26050-088, invitrogen, Carlsbad, Calif., USA), 1 μg/mL Geneticin, and 5 μg/mL Puromycin (cat #14861-84, invitrogen, Carlsbad, Calif., USA), in a Collagen Type 1-coated dish (cat #4030-010, iwaki, Tokyo, Japan). During the culture, the medium was replaced with fresh medium in every 2 to 3 days, and the cells were treated with TrypLE Express (cat #45604-021, invitrogen, Carlsbad, Calif., USA) to collect them in every 7 days. Thus, the cells were subcultured.
7 Days after subculturing, the cells were treated with TrypLE Express to collect them when they were about 80% confluent. The cells were suspended in a reaction medium containing Hanks (cat #14065-056, invitrogen, Carlsbad, Calif., USA)/20 mmol/L Hepes (cat #15630-080, invitrogen, Carlsbad, Calif., USA), Buffer (pH 7.4), F-10 Nutrient Mixture (Ham), and 0.1 mg/mL Geneticin, and the suspension was seeded in a 384-well plate (cat #781090, Greiner, Germany) at 20000 cells/25 μL per well.
On the next day after seeding, Viviren (cat#E649X, Promega, Madison, Wis., USA) was added to the medium so that the final concentration could be 4 μmol/L (15 μL/well). The plates were centrifuged and then placed in the dark for 4 hours at room temperature.
Each of the test compounds was dissolved in DMSO to prepare each test sample at a concentration of 1000-fold the final concentration. To the solution was added Hanks/20 mM HEPES/0.2% BSA (cat#A3803, Sigma, St. Louis, Mo., USA), and the concentration was adjusted to 6-fold the final concentration.
FDSS7000 (Hamamatsu Photonics) was used to detect the luminescence signal evoked by α7 nAChR stimulation. The cells and a luminescent substrate were put on a plate, and the test sample was added thereto. […] After the addition of ACh, the luminescence signal (the central wavelength: 465 nm) was measured for 138 seconds to calculate RLU (Max-Min). The ratio of the RLU (Max-Min) of the test-compound-containing wells to that of the control wells was defined as PAM activity.

T1 sequence (P36544 23-502): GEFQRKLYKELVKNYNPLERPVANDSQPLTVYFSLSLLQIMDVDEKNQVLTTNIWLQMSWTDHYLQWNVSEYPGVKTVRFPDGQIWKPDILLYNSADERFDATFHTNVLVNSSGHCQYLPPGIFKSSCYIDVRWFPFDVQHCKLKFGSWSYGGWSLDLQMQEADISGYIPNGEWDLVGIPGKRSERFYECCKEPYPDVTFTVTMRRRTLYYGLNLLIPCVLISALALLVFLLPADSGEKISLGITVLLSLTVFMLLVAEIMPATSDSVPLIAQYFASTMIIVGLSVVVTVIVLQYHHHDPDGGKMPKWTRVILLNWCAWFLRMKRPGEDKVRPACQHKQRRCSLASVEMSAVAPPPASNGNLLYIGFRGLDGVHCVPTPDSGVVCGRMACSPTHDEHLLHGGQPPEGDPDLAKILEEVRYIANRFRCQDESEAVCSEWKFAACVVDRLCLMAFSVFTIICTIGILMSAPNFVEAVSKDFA

Cc1ccc2c(cnn2C2CCN(C(=O)NC3CCCC3)CC2)c1 [Example 7]
α7PAM (%) @ 10 μmol/L: 1044%

CCOc1ccc2c(cnn2C2CCN(C(=O)N[C@H]3CC[C@H](OC)CC3)CC2)c1C [Example 282]
α7PAM (%) @ 10 μmol/L: 215%

Cc1ccc2c(cnn2C2CCN(C(=O)C3CCCC3)CC2)c1 [Example 106]
α7PAM (%) @ 10 μmol/L: 164%

CCOc1ccc2c(cnn2C2CCN(C(=O)c3ccc(F)cn3)CC2)c1 [Example 114]
α7PAM (%) @ 10 μmol/L: 189%

COc1ccc2c(cnn2C2CCN(C(=O)NC3CCC(F)(F)CC3)CC2)c1OC [Example 305]
α7PAM (%) @ 10 μmol/L: 729%

COCc1ccc2c(cnn2C2CCN(C(=O)NC3CCC(F)(F)CC3)CC2)c1 [Example 54]
α7PAM (%) @ 10 μmol/L: 657%

COCC1CCC(NC(=O)N2CCC(n3ncc4cc(C)ccc43)CC2)CC1 (stereo not drawn) [Example 220]
PAM activity for α7 nAChR (result in words, ratio of RLU (Max-Min) to control wells, ACh EC20): stronger PAM activity than others | α7PAM (%) @ 10 μmol/L: 2160%

COC(C)c1c(C)ccc2c1cnn2C1CCN(C(=O)NC2CCC(F)(F)CC2)CC1 (stereo not drawn) [Example 232]
α7PAM (%) @ 10 μmol/L: 860%

COCc1nn(C2CCN(C(=O)NC3CCC(OC)CC3)CC2)c2ccc(C)cc12 (stereo not drawn) [Example 69]
α7PAM (%) @ 10 μmol/L: 242%

Cc1ccc2c(cnn2C2CCN(C(=O)NC3CCC(F)(F)CC3)CC2)c1F [Example 222]
α7PAM (%) @ 10 μmol/L: 638%

COc1c(C(F)(F)F)ccc2c1cnn2C1CCN(C(=O)NC2CCC(OC)CC2)CC1 (stereo not drawn) [Example 317]
α7PAM (%) @ 10 μmol/L: 360%

O=C(NC1CCC(F)(F)CC1)N1CCC(n2ncc3cc(OC(F)F)ccc32)CC1 [Example 290]
α7PAM (%) @ 10 μmol/L: 1173%

COc1c(Br)ccc2c1cnn2C1CCN(C(=O)N[C@H]2CC[C@H](OC)CC2)CC1 [Example 285]
α7PAM (%) @ 10 μmol/L: 293%

Cc1c(C2CC2)ccc2c1cnn2C1CCN(C(=O)NC2CCC(F)(F)CC2)CC1 [Example 276]
α7PAM (%) @ 10 μmol/L: 1351%

CC(C)c1ccc2c(cnn2C2CCN(C(=O)C3CCOCC3)CC2)c1 [Example 107]
α7PAM (%) @ 10 μmol/L: 159%

COCCCc1ccc2c(cnn2C2CCN(C(=O)NC3CCCC3)CC2)c1 [Example 31]
α7PAM (%) @ 10 μmol/L: 1191%

CO[C@H]1CC[C@H](NC(=O)N2CCC(n3ncc4cc(-c5ccc(F)cc5)ccc43)CC2)CC1 [Example 155]
α7PAM (%) @ 10 μmol/L: 210%

CC(C)Cc1ccc2c(cnn2C2CCN(C(=O)C3CCOCC3)CC2)c1 [Example 103, (4-(5-isobutyl-1H-indazol-1-yl)piperidin-1-yl)(tetrahydro-2H-pyran-4-yl)methanone]
activity at 10 µM: 281%

O=C(NC1CCOCC1)N1CCC(n2ncc3c(OC(F)(F)F)cccc32)CC1 [Example 304]
α7PAM (%) @ 10 μmol/L: 380%

O=C(Nc1ccc(Cl)nn1)N1CCC(n2ncc3cc(C4CC4)ccc32)CC1 [Example 204]
α7PAM (%) @ 10 μmol/L: 193%

CCOc1ccc2c(cnn2C2CCN(C(=O)NC3CCC(F)(F)CC3)CC2)c1C [Example 281]
α7PAM (%) @ 10 μmol/L: 197%

[2H]C([2H])([2H])Oc1ccc2c(cnn2C2CCN(C(=O)NC3CCC(F)(F)CC3)CC2)c1 [Example 319]
α7PAM (%) @ 10 μmol/L: 1337%

COc1ccc2c(cnn2C2CCN(C(=O)NC3CCCC3(F)F)CC2)c1 (stereo not drawn) [Example 87]
α7PAM (%) @ 10 μmol/L: 514%

CCc1ccc2c(cnn2C2CCCN(C(=O)NC3CCC(OC)CC3)CC2)c1 (stereo not drawn) [Example 84]
α7PAM (%) @ 10 μmol/L: 179%

CCc1ccc2c(c1)c(OC)nn2C1CCN(C(=O)NC2CCOCC2)CC1 [Example 150]
α7PAM (%) @ 10 μmol/L: 643%

Cc1c(C2CC2)ccc2c1cnn2C1CCN(C(=O)NC2CCOCC2)CC1 [Example 283, 4-(5-cyclopropyl-4-methyl-1H-indazol-1-yl)-N-(tetrahydro-2H-pyran-4-yl)piperidine-1-carboxamide]
activity at 10 µM: 845%

CCc1ccc2c(c1)c(OC)nn2C1CCN(C(=O)NC2CCCCC2)CC1 [Example 151]
α7PAM (%) @ 10 μmol/L: 746%

COc1ccc2c(cnn2C2CCN(C(=O)NC3CCC(F)(F)CC3)CC2)c1C [Example 278]
α7PAM (%) @ 10 μmol/L: 861%

Cc1ccc2c(cnn2C2CCN(C(=O)N[C@H]3CC[C@H](OCC4CC4)CC3)CC2)c1 [Example 162]
α7PAM (%) @ 10 μmol/L: 1874%

COc1ccc2c(cnn2C2CCN(C(=O)N[C@H]3CC[C@H](OC)CC3)CC2)c1C [Example 279]
α7PAM (%) @ 10 μmol/L: 185%

CCOc1c(C)ccc2c1cnn2C1CCN(C(=O)NC2CCC(F)(F)CC2)CC1 [Example 269]
α7PAM (%) @ 10 μmol/L: 835%

COc1nn(C2CCN(C(=O)NC3CCC(F)(F)CC3)CC2)c2ccc(C)cc12 [Example 270]
α7PAM (%) @ 10 μmol/L: 364%

COCC1CCC(NC(=O)N2CCC(n3ncc4cc(F)ccc43)CC2)CC1 (stereo not drawn) [Example 236]
α7PAM (%) @ 10 μmol/L: 331%

CCc1nn(C2CCN(C(=O)N[C@H]3CC[C@H](OC)CC3)CC2)c2ccc(OC)cc12 [Example 240]
α7PAM (%) @ 10 μmol/L: 833%

COCC1CCC(NC(=O)N2CCC(n3ncc4cc(Cl)ccc43)CC2)CC1 (stereo not drawn) [Example 237]
α7PAM (%) @ 10 μmol/L: 832%

CCOc1nn(C2CCN(C(=O)NC3CCC(F)(F)CC3)CC2)c2ccc(CC)cc12 [Example 61]
α7PAM (%) @ 10 μmol/L: 1092%

Cc1ccc2c(cnn2C2CCN(C(=O)NC3CCOC(C)(C)C3)CC2)c1 (stereo not drawn) [Example 12]
α7PAM (%) @ 10 μmol/L: 231%

CCOc1nn(C2CCN(C(=O)NC3CCCCC3)CC2)c2ccc(CC)cc12 [Example 60]
α7PAM (%) @ 10 μmol/L: 846%

CCOc1c(CC)ccc2c1cnn2C1CCN(C(=O)NC2CCOCC2)CC1 [Example 274]
α7PAM (%) @ 10 μmol/L: 618%

CCc1ccc2c(cnn2C2CCN(C(=O)C3CCOCC3)CC2)c1 [Example 111]
α7PAM (%) @ 10 μmol/L: 410%

CCc1ccc2c(cnn2[C@H]2CC[C@@H](NC(=O)C3CCOCC3)CC2)c1 [Example 120]
α7PAM (%) @ 10 μmol/L: 654%

O=C(NC1CCOCC1)N1CCC(n2ncc3cc(C4CC4)ccc32)CC1 [Example 75]
α7PAM (%) @ 10 μmol/L: 621%

CCOc1cccc2c1cnn2C1CCN(C(=O)NC2CCC(F)(F)CC2)CC1 [Example 192]
α7PAM (%) @ 10 μmol/L: 699%

CCOc1ccc2c(cnn2C2CCN(C(=O)C3CCC(F)(F)CC3)CC2)c1 [Example 3, (4,4-difluorocyclohexyl)(4-(5-ethoxy-1H-indazol-1-yl)piperidin-1-yl)methanone]
activity at 10 µM: 512%

CCc1cccc2c1cnn2C1CCN(C(=O)N[C@H]2CC[C@@H](OC)CC2)CC1 [Example 158]
α7PAM (%) @ 10 μmol/L: 292%

CCc1c(OC)ccc2c1cnn2C1CCN(C(=O)NC2CCC(F)(F)CC2)CC1 [Example 287]
α7PAM (%) @ 10 μmol/L: 645%

CCOc1cccc2c1cnn2C1CCN(C(=O)NC2CCCCC2)CC1 [Example 191]
α7PAM (%) @ 10 μmol/L: 493%

COC1CCC(NC(=O)N2CCC(n3ncc4c(OC(F)F)cccc43)CC2)CC1 (stereo not drawn) [Example 202]
α7PAM (%) @ 10 μmol/L: 195%

O=C(NC1CC1)N1CCC(n2ncc3cc(C4CC4)ccc32)CC1 [Example 176]
α7PAM (%) @ 10 μmol/L: 187%

[2H]C([2H])([2H])O[C@H]1CC[C@H](NC(=O)N2CCC(n3ncc4cc(OC5CC5)ccc43)CC2)CC1 [Example 322]
α7PAM (%) @ 10 μmol/L: 639%

O=C(NC1CCCCC1)N1CCC(n2ncc3ccccc32)CC1 [Example 39]
α7PAM (%) @ 10 μmol/L: 1892%

Cc1c(OC(F)F)ccc2c1cnn2C1CCN(C(=O)NC2CCOCC2)CC1 [Example 294]
α7PAM (%) @ 10 μmol/L: 523%

COc1ccc2c(c1)c(C1=CCOCC1)nn2C1CCN(C(=O)NC2CCC(F)(F)CC2)CC1 [Example 259]
α7PAM (%) @ 10 μmol/L: 309%

CCc1ccc2c(c1)c(OC(F)F)nn2C1CCN(C(=O)NC2CCOCC2)CC1 [Example 209]
α7PAM (%) @ 10 μmol/L: 266%

COCC1CCC(NC(=O)N2CCC(n3ncc4cc(OC(C)C)ccc43)CC2)CC1 (stereo not drawn) [Example 235]
α7PAM (%) @ 10 μmol/L: 611%

CCOc1c(C)ccc2c1cnn2C1CCN(C(=O)N[C@H]2CC[C@H](OC)CC2)CC1 [Example 145, 4-(4-ethoxy-5-methyl-1H-indazol-1-yl)-N-(trans-4-methoxycyclohexyl)piperidine-1-carboxamide]
activity at 10 µM: 804%
